According to article PMC4503722, “Novel Phenotypic Outcomes Identified for a Public Collection of Approved Drugs from a Publicly Accessible Panel of Assays” (PLoS ONE, 2015):
Like-named read-outs stand apart in the source and are kept apart here.

What was measured:
[1] = test system: nuclear β-catenin in C2C12 cells; assay: cells; assay type: cell-based
hGSK3b = target: T1, hGSK3b (Homo sapiens, UniProt P49841); assay: Cerep LANCE kinase assay hGSK3b (S1 assay 34); assay type: biochemical; settings: for IC50: read-out: GSK3b
T1 construct: purchased Cerep (LANCE kinase assay platform, contract assay)
T1 sequence (P49841 whole entry): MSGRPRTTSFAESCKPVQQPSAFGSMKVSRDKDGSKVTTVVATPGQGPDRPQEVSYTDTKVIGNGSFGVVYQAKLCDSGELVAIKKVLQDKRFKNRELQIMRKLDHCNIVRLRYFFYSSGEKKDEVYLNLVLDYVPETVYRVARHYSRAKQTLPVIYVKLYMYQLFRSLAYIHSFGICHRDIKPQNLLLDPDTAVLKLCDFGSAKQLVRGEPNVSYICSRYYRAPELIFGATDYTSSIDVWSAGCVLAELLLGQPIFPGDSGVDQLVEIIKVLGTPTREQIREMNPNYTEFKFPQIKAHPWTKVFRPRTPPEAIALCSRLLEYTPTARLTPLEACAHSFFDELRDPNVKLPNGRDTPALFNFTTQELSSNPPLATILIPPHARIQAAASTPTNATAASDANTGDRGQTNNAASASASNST

HCT116 = assay: cells; assay type: cell-based
hFLT3 = target: T2, hFLT3 (Homo sapiens, UniProt P36888); assay: Cerep LANCE kinase assay hFLT3 (S1 assay 35); assay type: biochemical; settings: for IC50: read-out: FLT3
T2 construct: purchased Cerep (LANCE kinase assay platform, contract assay)
T2 sequence (P36888 27-993): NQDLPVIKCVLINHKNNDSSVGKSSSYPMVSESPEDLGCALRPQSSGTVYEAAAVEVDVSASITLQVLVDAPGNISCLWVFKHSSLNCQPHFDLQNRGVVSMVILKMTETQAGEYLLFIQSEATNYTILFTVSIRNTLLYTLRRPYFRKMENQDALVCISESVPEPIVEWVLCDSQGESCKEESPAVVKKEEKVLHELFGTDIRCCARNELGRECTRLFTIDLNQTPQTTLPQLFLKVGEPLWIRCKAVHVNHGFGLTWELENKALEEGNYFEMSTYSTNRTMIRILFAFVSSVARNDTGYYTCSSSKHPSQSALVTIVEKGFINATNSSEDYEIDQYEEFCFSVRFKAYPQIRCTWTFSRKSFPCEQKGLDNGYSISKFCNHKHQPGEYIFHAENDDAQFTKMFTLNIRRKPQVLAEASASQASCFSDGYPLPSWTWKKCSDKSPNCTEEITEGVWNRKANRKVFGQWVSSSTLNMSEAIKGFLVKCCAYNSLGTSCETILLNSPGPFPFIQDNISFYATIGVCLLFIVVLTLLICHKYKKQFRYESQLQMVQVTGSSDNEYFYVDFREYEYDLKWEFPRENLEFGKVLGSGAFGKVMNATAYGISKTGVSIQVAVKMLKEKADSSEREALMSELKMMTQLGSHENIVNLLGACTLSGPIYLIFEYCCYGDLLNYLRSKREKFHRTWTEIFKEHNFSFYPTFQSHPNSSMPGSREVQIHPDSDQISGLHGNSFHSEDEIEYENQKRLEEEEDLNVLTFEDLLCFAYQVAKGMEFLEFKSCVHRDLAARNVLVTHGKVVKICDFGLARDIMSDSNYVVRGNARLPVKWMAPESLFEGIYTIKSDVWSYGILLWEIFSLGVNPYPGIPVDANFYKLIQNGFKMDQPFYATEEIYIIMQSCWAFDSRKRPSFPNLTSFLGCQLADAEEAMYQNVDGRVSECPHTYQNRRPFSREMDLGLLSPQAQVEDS

NCI-H716 cells = assay: cells; assay type: cell-based, Human
hKDR = target: T3, hKDR (Homo sapiens, UniProt P35968); assay: Cerep LANCE kinase assay hKDR (S1 assay 32); assay type: biochemical; settings: for IC50: read-out: KDR
T3 construct: purchased Cerep (LANCE kinase assay platform, contract assay)
T3 sequence (P35968 20-1356): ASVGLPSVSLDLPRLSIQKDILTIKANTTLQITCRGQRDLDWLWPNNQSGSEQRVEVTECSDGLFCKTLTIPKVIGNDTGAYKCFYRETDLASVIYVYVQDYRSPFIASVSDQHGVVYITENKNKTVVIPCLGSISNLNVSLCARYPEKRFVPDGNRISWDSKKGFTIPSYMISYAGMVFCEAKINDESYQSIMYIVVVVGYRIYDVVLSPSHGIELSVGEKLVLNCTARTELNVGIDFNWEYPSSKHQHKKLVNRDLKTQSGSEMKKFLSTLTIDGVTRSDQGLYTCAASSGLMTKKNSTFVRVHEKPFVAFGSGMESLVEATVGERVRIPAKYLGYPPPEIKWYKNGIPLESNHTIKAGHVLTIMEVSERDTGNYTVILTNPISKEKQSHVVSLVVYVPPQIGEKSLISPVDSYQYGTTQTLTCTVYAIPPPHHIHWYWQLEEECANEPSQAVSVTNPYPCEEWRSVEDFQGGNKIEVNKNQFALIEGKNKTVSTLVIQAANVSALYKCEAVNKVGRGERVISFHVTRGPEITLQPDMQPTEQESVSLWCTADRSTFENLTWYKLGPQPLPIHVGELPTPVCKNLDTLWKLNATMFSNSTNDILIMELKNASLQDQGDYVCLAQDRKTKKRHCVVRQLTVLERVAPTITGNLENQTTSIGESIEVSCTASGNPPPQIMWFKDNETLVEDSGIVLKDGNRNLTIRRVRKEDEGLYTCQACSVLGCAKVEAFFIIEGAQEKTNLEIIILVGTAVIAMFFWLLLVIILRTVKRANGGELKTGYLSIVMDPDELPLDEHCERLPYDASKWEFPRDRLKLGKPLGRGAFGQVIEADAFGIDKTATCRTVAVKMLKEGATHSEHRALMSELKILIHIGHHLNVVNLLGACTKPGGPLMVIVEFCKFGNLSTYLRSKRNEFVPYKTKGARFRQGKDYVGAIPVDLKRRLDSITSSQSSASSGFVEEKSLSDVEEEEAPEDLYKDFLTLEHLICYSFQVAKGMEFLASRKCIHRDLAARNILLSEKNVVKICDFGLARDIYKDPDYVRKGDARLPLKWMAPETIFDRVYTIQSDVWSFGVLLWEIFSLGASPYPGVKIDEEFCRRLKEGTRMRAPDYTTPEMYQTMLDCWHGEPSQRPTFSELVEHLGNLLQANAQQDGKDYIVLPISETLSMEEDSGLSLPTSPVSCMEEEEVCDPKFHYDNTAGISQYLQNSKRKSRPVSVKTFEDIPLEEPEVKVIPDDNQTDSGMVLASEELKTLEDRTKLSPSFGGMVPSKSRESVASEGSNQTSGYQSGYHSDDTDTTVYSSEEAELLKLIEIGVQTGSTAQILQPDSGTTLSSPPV

SW480 = assay: cells; assay type: cell-based
INS-1E cells = assay: cells; assay type: cell-based, rat
[2] = test system: HCT116 cells treated with a GSK3β inhibitor; assay: cells; assay type: cell-based
hJAK2 = target: T4, hJAK2 (Homo sapiens, UniProt O60674); assay: Cerep LANCE kinase assay hJAK2 (S1 assay 33); assay type: biochemical; settings: for IC50: read-out: JAK2
T4 construct: purchased Cerep (LANCE kinase assay platform, contract assay)
T4 sequence (O60674 whole entry): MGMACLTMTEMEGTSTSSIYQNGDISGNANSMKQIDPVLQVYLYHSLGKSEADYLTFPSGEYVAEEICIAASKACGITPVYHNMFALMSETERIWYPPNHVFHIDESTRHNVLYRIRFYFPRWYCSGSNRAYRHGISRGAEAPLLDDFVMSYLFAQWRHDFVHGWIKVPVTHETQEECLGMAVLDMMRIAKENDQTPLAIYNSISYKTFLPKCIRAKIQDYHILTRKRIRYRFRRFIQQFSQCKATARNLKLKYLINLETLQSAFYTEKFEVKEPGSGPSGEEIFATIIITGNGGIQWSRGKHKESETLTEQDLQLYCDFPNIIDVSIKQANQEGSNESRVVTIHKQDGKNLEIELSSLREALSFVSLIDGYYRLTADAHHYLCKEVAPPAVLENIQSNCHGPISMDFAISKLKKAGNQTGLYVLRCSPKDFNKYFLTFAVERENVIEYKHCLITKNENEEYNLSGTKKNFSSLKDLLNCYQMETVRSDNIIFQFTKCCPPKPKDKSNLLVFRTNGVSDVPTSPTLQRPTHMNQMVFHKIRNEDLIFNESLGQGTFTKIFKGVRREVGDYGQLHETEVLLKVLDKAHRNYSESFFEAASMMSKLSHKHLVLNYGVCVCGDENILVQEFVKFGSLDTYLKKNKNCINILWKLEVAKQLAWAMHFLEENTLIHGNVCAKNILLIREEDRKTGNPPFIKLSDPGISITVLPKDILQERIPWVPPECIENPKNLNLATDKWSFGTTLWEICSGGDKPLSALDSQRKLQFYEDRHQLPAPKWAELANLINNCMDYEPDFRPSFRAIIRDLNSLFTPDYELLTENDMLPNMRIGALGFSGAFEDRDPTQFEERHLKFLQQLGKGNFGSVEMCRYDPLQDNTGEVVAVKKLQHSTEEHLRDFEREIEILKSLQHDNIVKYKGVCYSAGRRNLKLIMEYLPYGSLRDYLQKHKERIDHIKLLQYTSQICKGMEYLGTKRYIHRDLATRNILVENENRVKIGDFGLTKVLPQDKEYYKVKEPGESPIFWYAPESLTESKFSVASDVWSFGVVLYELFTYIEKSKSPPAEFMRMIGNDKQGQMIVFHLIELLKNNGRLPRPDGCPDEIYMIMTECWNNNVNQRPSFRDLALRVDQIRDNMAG

[3] = test system: endothelial tube formation in co-cultures of ECFCs and ADSCs treated with VEGF; assay: cells; assay type: cell-based, human
hp70S6K1 (RPS6KB1) = target: T5, hp70S6K1 (RPS6KB1) (Homo sapiens, UniProt P23443); assay: Cerep LANCE kinase assay hp70S6K1 (S1 assay 31); assay type: biochemical; settings: for IC50: read-out: p70S6K1
T5 construct: purchased Cerep (LANCE kinase assay platform, contract assay)
T5 sequence (P23443 whole entry): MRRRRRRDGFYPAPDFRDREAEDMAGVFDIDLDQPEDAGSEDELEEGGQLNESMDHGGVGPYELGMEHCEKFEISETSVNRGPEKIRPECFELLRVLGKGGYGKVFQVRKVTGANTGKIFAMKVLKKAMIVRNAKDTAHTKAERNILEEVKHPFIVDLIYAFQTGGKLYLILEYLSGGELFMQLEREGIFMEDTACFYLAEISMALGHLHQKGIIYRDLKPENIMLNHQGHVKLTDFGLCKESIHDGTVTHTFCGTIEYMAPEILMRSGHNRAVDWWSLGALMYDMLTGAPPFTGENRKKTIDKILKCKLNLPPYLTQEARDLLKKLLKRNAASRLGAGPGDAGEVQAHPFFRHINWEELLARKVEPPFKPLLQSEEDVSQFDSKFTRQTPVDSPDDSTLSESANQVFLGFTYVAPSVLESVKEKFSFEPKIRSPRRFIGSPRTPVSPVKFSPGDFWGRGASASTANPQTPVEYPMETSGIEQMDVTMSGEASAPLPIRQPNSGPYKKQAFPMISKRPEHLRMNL

DLD-1 = assay: cells; assay type: cell-based
HeLa cells = assay: cells; assay type: cell-based; settings: HeLa, read-out: CellCycle G2/M
[4] = Homo sapiens, SW480, read-out: Basal_Viability ATP SW480
[5] = Homo sapiens, HCT-116, read-out: GSK3b inh pretreated_Viability ATP HCT116
[6] = Homo sapiens, read-out: Anti-Angiogenesis
[7] = Homo sapiens, DLD-1, read-out: Basal_Viability ATP DLD-1
[8] = Mus musculus, C2C12, read-out: Wnt Pathway
[9] = Homo sapiens, HCT-116, read-out: Basal_Viability ATP HCT116
[10] = Homo sapiens, NCI-H716, read-out: GLP 1 Secretion
[11] = Rattus norvegicus, INS-1E, read-out: Insulin Secretion

SMILES | IC50 (hGSK3b) [µM] | IC50 (hFLT3) [µM] | IC50 (hKDR) [µM] | IC50 (SW480; [4]) [µM] | IC50 [2, 5] [µM] | IC50 (hJAK2) [µM] | IC50 [3, 6] [µM] | IC50 (hp70S6K1 (RPS6KB1)) [µM] | IC50 (DLD-1; [7]) [µM] | EC50 (HeLa cells; Homo sapiens) [µM] | EC50 [1, 8] [µM] | IC50 (HCT116; [9]) [µM] | EC50 (NCI-H716 cells; [10]) [µM] | EC50 (INS-1E cells; [11]) [µM] | other results
CCCCCCCCCCCCCCCCNc1ccc(C(=O)O)cc1 [cetaben sodium, sodium p-(hexadecylamino) benzoate, reference compound] | > 20 | > 20 | > 20 | 4.39 | 7.41 | > 20 | 0.367 | > 20 | 10.6 | > 10 |  |  |  |  | EC50 ([1]; Mus musculus, C2C12, read-out: Wnt pot. EC50): > 10 µM; inhibition of GSK3β activity (in words) (hGSK3b): does not inhibit; IC50 (HCT116; Homo sapiens, HCT-116, 72 h, read-out: HCT-116 viab. IC50): > 20 µM; inhibition of FLT3 activity (in words) (hFLT3): does not inhibit; EC50 (NCI-H716 cells; Homo sapiens, NCI-H716, read-out: GLP1 sec. EC50): > 10 µM; inhibition of KDR activity (in words) (hKDR): does not inhibit; IC50 (SW480; Homo sapiens, SW480, 72 h, read-out: SW480 viab. IC50): 4.4 µM; EC50 (INS-1E cells; Rattus norvegicus, INS-1E, read-out: Ins. sec. EC50): > 10 µM; IC50 ([2]; Homo sapiens, HCT-116, 72 h, read-out: HCT-116 (GSK3β) viab. IC50): 7.4 µM; inhibition of JAK2 activity (in words) (hJAK2): does not inhibit; inhibition of endothelial tube / cord formation (in words) [3]: uniquely inhibited endothelial cord formation; IC50 ([3]; Homo sapiens, read-out: Anti-Angio IC50): 0.37 µM; inhibition of RPS6KB1 activity (in words) (hp70S6K1 (RPS6KB1)): does not inhibit; IC50 (DLD-1; Homo sapiens, DLD-1, 72 h, read-out: DLD-1 viab. IC50): 10.6 µM
Nc1ncnc2c1ncn2CCOCP(=O)(O)O [Adefovir] | > 20 | > 20 | > 20 | 2.77 | 0.584 | > 20 | 0.391 | > 20 | 2.68 | > 10 | 0.387 | 9.01 | > 10 | > 10 | 
CC[C@]1(O)C[C@H]2CN(CCc3c([nH]c4ccccc34)[C@@](C(=O)OC)(c3cc4c(cc3OC)N(C=O)[C@H]3[C@@](O)(C(=O)OC)[C@H](OC(C)=O)[C@]5(CC)C=CCN6CC[C@]43[C@@H]65)C2)C1 [vincristine] | > 20 | > 20 | > 20 | 3.08 | 0.0667 | > 20 | 0.0065 | > 20 | 0.786 | 0.0059 | 0.004 | 0.126 | > 10 | > 10 | 
CCCCCCNC(=O)n1cc(F)c(=O)[nH]c1=O [Carmofur] | > 20 | > 20 | > 20 |  |  | > 20 |  | > 20 |  |  |  |  |  |  | EC50 ([1]; Mus musculus, C2C12, IC50 / EC50, C2C12 beta-catenin translocation, read-out: Wnt Pathway): 4.98 µM; IC50 (HCT116; Homo sapiens, HCT-116, basal, read-out: Basal_Viability ATP HCT116): > 20 µM; EC50 (NCI-H716 cells; Homo sapiens, IC50 / EC50, NCI-H716, read-out: GLP 1 Secretion): > 10 µM; IC50 (SW480; Homo sapiens, SW480, basal, read-out: Basal_Viability ATP SW480): 10.6 µM; EC50 (INS-1E cells; Rattus norvegicus, IC50 / EC50, INS-1E, read-out: Insulin Secretion): > 10 µM; IC50 ([2]; Homo sapiens, HCT-116, GSK3b inhibitor pretreated, read-out: GSK3b inh pretreated_Viability ATP HCT116): 10.5 µM; IC50 ([3]; Homo sapiens, IC50 / EC50, endothelial tube area, ADSC/ECFC co-culture, read-out: Anti-Angiogenesis): 4.49 µM; IC50 (DLD-1; Homo sapiens, DLD-1, basal, read-out: Basal_Viability ATP DLD-1): > 20 µM; EC50 (HeLa cells; Homo sapiens, IC50 / EC50): > 10 µM
COC(=O)c1nc(Cl)c(Cl)nc1N |  |  |  |  |  |  |  |  |  |  |  |  |  |  | EC50 ([1]; read-out: Wnt Pathway): 0.157 µM; IC50 (hGSK3b; kinase assay): > 20 µM; IC50 (HCT116; basal, HCT116, read-out: Basal_Viability ATP HCT116): 0.327 µM; IC50 (hFLT3; kinase assay): 2.86 µM; EC50 (NCI-H716 cells; S2 Table, module primary assay, 20 / 20.1 codes per legend, read-out: GLP 1 Secretion): > 10 µM; IC50 (hKDR; kinase assay): > 20 µM; IC50 (SW480; basal, SW480, read-out: Basal_Viability ATP SW480): 0.88 µM; EC50 (INS-1E cells; S2 Table, module primary assay, 20 / 20.1 codes per legend, read-out: Insulin Secretion): > 10 µM; IC50 ([2]; HCT116 pretreated with GSK3b inhibitor, read-out: GSK3b inh pretreated_Viability ATP HCT116): 0.296 µM; IC50 (hJAK2; kinase assay): > 20 µM; IC50 ([3]; read-out: Anti-Angiogenesis): 0.865 µM; IC50 (hp70S6K1 (RPS6KB1); kinase assay): > 20 µM; IC50 (DLD-1; basal, DLD-1, read-out: Basal_Viability ATP DLD-1): 0.835 µM; EC50 (HeLa cells; S2 Table, 20 = no response at highest concentration): 0.511 µM
